Counter-ions that a name gives are not always drawn.
tested on: guinea pig trachea; test: relaxing action on guinea pig trachea contracted beforehand with methacholine (in vitro, organ bath); assay type: cell-based; settings: Cavia porcellus, read-out: -log[EC50 (mol/l)] (converted)
Method: For this, the relaxing action on a guinea pig trachea which has been contracted beforehand with a suitable dose of methacholine is measured for the compounds to be investigated. The trachea of male guinea pigs (200-300 g) is removed and divided into individual segments and each segment is suspended in an organ bath with 118.5 mM NaCl, 4.7 mM KCl, 1.2 mM MgSO4, 2.5 mM CaCl2, 1.2 mM KH2 PO4, 25 mM NaHCO3 and 10 mM glucose at 37° C. Oxygen to which 5% of CO2 has been added is passed permanently through the solution. After stabilization, the trachea is contracted with a suitable dose of methacholine. Thereafter, a dose/effect curve is plotted with the test substances in a cumulative manner. The concentration (mol/l) which corresponds to 50% of the maximum effect (EC50) is then determined from this curve. This EC50 is thus a measure of the activity of the compounds according to the invention.
The serial number in the table agrees with the number of the compounds in the examples. The number n indicates the number of investigations.

Structure (SMILES) | EC50 [nM]
Nc1c(Cl)cc(C(O)CNCCOCCOC(=O)Cc2ccccc2)cc1Cl (stereo not shown) [Compound 106, {2-[2-[2-(4-Amino-3,5-dichlorophenyl)-2-hydroxyethylamino]ethoxy]ethyl}phenylacetate-fumarate] | 7.94

same assay, conditions: Cavia porcellus; in vitro relaxation of methacholine-contracted guinea pig trachea segments, cumulative dose/effect curve, 37° C., n = 3 to 6; read-out: -log[EC50 (mol/l)] (converted)

Structure (SMILES) | EC50 [nM]
Nc1c(Cl)cc(C(O)CNCCCCCCOC(=O)CCc2ccc(O)cc2)cc1Cl (stereo not shown) [Compound 17, {6-[2-(4-Amino-3,5-dichlorophenyl)-2-hydroxyethylamino]-1-hexyl}[3-(4-hydroxyphenyl)]propionate-hydrochloride] | 20
O=C(CCCCCNCC(O)c1ccc(O)c(CO)c1)OCCCCc1ccccc1 (stereo not shown) [Compound 64, 4-Phenylbutyl 6-[2-hydroxy-2-(4-hydroxy-3-hydroxymethylphenyl)ethylamino]hexanoate-oxalate] | 10
Nc1c(Cl)cc(C(O)CNCCCCCC(=O)OCCc2cccc3ccccc23)cc1Cl (stereo not shown) [Compound 19, 2-(1-Naphthyl)ethyl 6-[2-(4-amino-3,5-dichlorophenyl)-2-hydroxyethylamino]hexanoate] | 6.31
Nc1ccc(C(O)CNCCCCCCOC(=O)Cc2ccccc2Cl)c(Cl)c1Cl (stereo not shown) [Compound 82, {6-[2-(4-Amino-2,3-dichlorophenyl)-2-hydroxyethylamino]-1-hexyl}2-chlorophenylacetate-hemifumarate] | 10
Nc1c(Cl)cc(C(O)CNCCCCCCOC(=O)Cc2cccc3ccccc23)cc1Cl (stereo not shown) [Compound 34, {6-[2-(4-Amino-3,5-dichlorophenyl)-2-hydroxyethylamino]-1-hexyl}1-naphthylacetate-maleate] | 3.16
N#Cc1cc(C(O)CNCCCCCC(=O)OCCc2ccccc2)cc(Cl)c1N (stereo not shown) [Compound 74, 2-Phenylethyl 6-[2-(4-amino-5-chloro-3-cyanophenyl)-2-hydroxyethylamino]hexanoate-hemifumarate] | 3.98
Nc1c(Cl)cc(C(O)CNCCCCCC(=O)OCCc2c[nH]c3ccccc23)cc1Cl (stereo not shown) [Compound 103, 2-(3-Indolyl)ethyl 6-[2-(4-amino-3,5-dichlorophenyl)-2-hydroxyethylamino]hexanoate-hemifumarate] | 3.16
Nc1c(Cl)cc(C(O)CNCCCCCC(=O)OCCc2ccccn2)cc1Cl (stereo not shown) [Compound 32, 2-(2-Pyridyl)ethyl6-[2-(4-amino-3,5-dichlorophenyl)-2-hydroxyethylamino]hexanoate-hemifumarate] | 15.8
Nc1c(Cl)cc(C(O)CNCCCCCC(=O)OCCc2ccc(O)cc2)cc1Cl (stereo not shown) [Compound 37, 2-(4-Hydroxyphenyl)ethyl 6-[2-(4-amino-3,5-dichlorophenyl)-2-hydroxyethylamino]hexanoate] | 2
